Results taken from patent publication US8742138B2, “Compounds as hypoxia mimetics, and compositions and uses thereof” (Betta Pharmaceuticals Co., Ltd., priority 2009, dated 2014).

Target: HIF-PHD2 (Homo sapiens (Human), UniProt Q9GZT9)
Assay: Assay of HIF-PHD2 Enzyme Activity (TR-FRET)
Type: biochemical
Conditions: 600 nM full length PHD2, 0.2 μM 2-oxoglutarate, 0.5 μM HIF-1α peptide
Procedure: HIF-PHD2 activity was measured using homogeneous TR-FRET technology (see also, US2008/004817; Dao J H et al., Anal Biochem. 2009, 384:213-23). To each well of a ½Area 96-well plate was added 2 μL of test compound in DMSO and 40 μL of assay buffer (50 mM Tris PH7.4/0.01% Tween-20/0.1 mg/ml BSA/1 mM Sodium ascorbate/20 μg/ml Catalase/10 μM FeSO4) containing 600 nM full length PHD2. After a 30 min preincubation at room temperature, the enzymatic reactions were initiated by the addition of 8 μL of substrates (final concentrations of 0.2 μM 2-oxoglutarate and 0.5 μM HIF-1α peptide biotinyl-[…]). After 2 hr at room temperature, the reactions were terminated and signals were developed by the addition of a 50 μL quench/detection mix to a final concentration of 1 mM ortho-phenanthroline, 0.1 mM EDTA, 0.5 nM anti-(His)6LANCE reagent, 100 nM AF647-labeled Streptavidin, and 30 nM (His)6-VHL-elonginB-elonginC complex. The ratio of time resolved fluorescence signals at 665 and 620 nm was determined, and percent inhibition was calculated relative to an uninhibited control sample run in parallel.

Sequence of HIF-PHD2 (Q9GZT9 whole entry): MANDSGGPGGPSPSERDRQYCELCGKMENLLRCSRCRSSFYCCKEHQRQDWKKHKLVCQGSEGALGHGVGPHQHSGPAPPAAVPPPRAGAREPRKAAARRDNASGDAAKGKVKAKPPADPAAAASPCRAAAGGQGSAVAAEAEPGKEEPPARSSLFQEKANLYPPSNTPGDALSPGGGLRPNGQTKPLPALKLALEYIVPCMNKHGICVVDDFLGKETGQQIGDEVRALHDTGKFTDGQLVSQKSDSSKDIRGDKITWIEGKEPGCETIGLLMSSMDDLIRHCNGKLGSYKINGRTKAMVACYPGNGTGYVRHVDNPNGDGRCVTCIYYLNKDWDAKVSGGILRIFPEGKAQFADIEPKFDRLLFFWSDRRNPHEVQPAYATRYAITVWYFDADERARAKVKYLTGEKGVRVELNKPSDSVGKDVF

Row | SMILES | IC50
1 | O=C(O)CNC(=O)c1c(O)c2ccc(-c3ccc(Cl)cc3)cc2oc1=O [Example 4, N-[(4-hydroxy-2-oxo-7-(4-chloro-phenyl)-2H-3-chromenyl)carbonyl]glycine] | 150 nM
2 | O=C(O)CNC(=O)c1c(O)c2ccc(Oc3ccccc3)cc2oc1=O [Example 34, N-[(4-hydroxy-2-oxo-7-phenoxy-2H-3-chromenyl)carbonyl]glycine] | 150 nM
3 | O=C(O)CNC(=O)c1c(O)c2ccc(-c3cccnc3)cc2oc1=O [Example 33, N-[(4-hydroxy-2-oxo-7-(pyridin-3-yl)-2H-3-chromenyl)carbonyl]glycine] | 200 nM
4 | COc1ccc(-c2ccc3c(O)c(C(=O)NCC(=O)O)c(=O)oc3c2)cc1 [Example 13, N-[(4-hydroxy-2-oxo-7-(4-methoxy-phenyl)-2H-3-chromenyl)carbonyl]glycine] | 150 nM
5 | O=C(O)CNC(=O)c1c(O)c2ccc(-c3ccc(F)c(F)c3)cc2oc1=O [Example 10, N-[(4-hydroxy-2-oxo-7-(3,4-difluoro-phenyl)-2H-3-chromenyl)carbonyl]glycine] | 150 nM
6 | O=C(O)CNC(=O)c1c(O)c2ccc(Br)cc2oc1=O [Example 35, N-[(4-hydroxy-2-oxo-7-bromo-3-chromenyl)carbonyl]glycine] | 150 nM
7 | O=C(O)CNC(=O)c1c(O)c2ccc(-c3ccc(Cl)c(Cl)c3)cc2oc1=O [Example 9, N-[(4-hydroxy-2-oxo-7-(3,4-dichloro-phenyl)-2H-3-chromenyl)carbonyl]glycine] | 150 nM
8 | O=C(O)CNC(=O)c1c(O)c2ccc(-c3cc(F)c(F)c(F)c3)cc2oc1=O [Example 11, N-[(4-hydroxy-2-oxo-7-(3,4,5-trifluoro-phenyl)-2H-3-chromenyl)carbonyl]glycine] | 150 nM
9 | O=C(O)CNC(=O)c1c(O)c2cccc(Br)c2oc1=O [Example 36, N-[(4-hydroxy-2-oxo-8-bromo-3-chromenyl)carbonyl]glycine] | 300 nM
10 | O=C(O)CNC(=O)c1c(O)c2cccc(-c3cc(F)c(F)c(F)c3)c2oc1=O [Example 26, N-[(4-hydroxy-2-oxo-8-(3,4,5-trifluorophenyl)-2H-3-chromenyl)carbonyl]glycine] | 150 nM
11 | O=C(O)CNC(=O)c1c(O)c2ccc(-c3cccc(OC(F)(F)F)c3)cc2oc1=O [Example 7, N-[(4-hydroxy-2-oxo-7-(3-trifluoromethoxy-phenyl)-2H-3-chromenyl)carbonyl]glycine] | 150 nM
12 | O=C(O)CNC(=O)c1c(O)c2cccc(-c3ccc(OC(F)(F)F)cc3)c2oc1=O [Example 23, N-[(4-hydroxy-2-oxo-8-(4-trifluoromethoxyphenyl)-2H-3-chromenyl)carbonyl]glycine] | 150 nM
13 | O=C(O)CNC(=O)c1c(O)c2ccc(-c3ccccc3)cc2oc1=O [Example 1, N-[(4-hydroxy-2-oxo-7-phenyl-2H-3-chromenyl)carbonyl]glycine] | 250 nM
14 | O=C(O)CNC(=O)c1c(O)c2ccc(-c3ccc(OC(F)(F)F)cc3)cc2oc1=O [Example 8, N-[(4-hydroxy-2-oxo-7-(4-trifluoromethoxy-phenyl)-2H-3-chromenyl)carbonyl]glycine] | 150 nM
15 | O=C(O)CNC(=O)c1c(O)c2ccc(-c3ccc(C(F)(F)F)cc3)cc2oc1=O [Example 6, N-[(4-hydroxy-2-oxo-7-(4-trifluoromethyl-phenyl)-2H-3-chromenyl)carbonyl]glycine] | 150 nM
16 | O=C(O)CNC(=O)c1c(O)c2ccc(-c3cccc(C(F)(F)F)c3)cc2oc1=O [Example 5, N-[(4-hydroxy-2-oxo-7-(3-trifluoromethyl-phenyl)-2H-3-chromenyl)carbonyl]glycine] | 150 nM
17 | O=C(O)CNC(=O)c1c(O)c2cc(Br)ccc2oc1=O [Example 37, N-[(4-hydroxy-2-oxo-6-bromo-3-chromenyl)carbonyl]glycine] | 700 nM
18 | Cc1ccc(-c2ccc3c(O)c(C(=O)NCC(=O)O)c(=O)oc3c2)cc1 [Example 15, N-[(4-hydroxy-2-oxo-7-(4-methylphenyl)-2H-3-chromenyl)carbonyl]glycine] | 150 nM
19 | COc1cccc(-c2ccc3c(O)c(C(=O)NCC(=O)O)c(=O)oc3c2)c1 [Example 12, N-[(4-hydroxy-2-oxo-7-(3-methoxy-phenyl)-2H-3-chromenyl)carbonyl]glycine] | 150 nM
20 | Cc1cccc(-c2ccc3c(O)c(C(=O)NCC(=O)O)c(=O)oc3c2)c1 [Example 14, N-[(4-hydroxy-2-oxo-7-(3-methylphenyl)-2H-3-chromenyl)carbonyl]glycine] | 300 nM

Results, then the compound that gave them:

Row | IC50 | SMILES
21 | 150 nM | O=C(O)CNC(=O)c1c(O)c2ccc(-c3ccccc3Cl)cc2oc1=O [Example 2, N-[(4-hydroxy-2-oxo-7-(2-chloro-phenyl)-2H-3-chromenyl)carbonyl]glycine]
22 | 200 nM | O=C(O)CNC(=O)c1c(O)c2cccc(-c3ccccc3Cl)c2oc1=O [Example 17, N-[(4-hydroxy-2-oxo-8-(2-chlorophenyl)-2H-3-chromenyl)carbonyl]glycine]
23 | 90 nM | O=C(O)CNC(=O)c1c(O)c2cccc(-c3cccc(Cl)c3)c2oc1=O [Example 18, N-[(4-hydroxy-2-oxo-8-(3-chlorophenyl)-2H-3-chromenyl)carbonyl]glycine]
24 | 100 nM | O=C(O)CNC(=O)c1c(O)c2cccc(-c3cccc(C(F)(F)F)c3)c2oc1=O [Example 20, N-[(4-hydroxy-2-oxo-8-(3-trifluoromethylphenyl)-2H-3-chromenyl)carbonyl]glycine]
25 | 30 nM | O=C(O)CNC(=O)c1c(O)c2cccc(-c3ccc(Cl)c(Cl)c3)c2oc1=O [Example 24, N-[(4-hydroxy-2-oxo-8-(3,4-dichlorophenyl)-2H-3-chromenyl)carbonyl]glycine]
26 | 80 nM | COc1ccc(-c2cccc3c(O)c(C(=O)NCC(=O)O)c(=O)oc23)cc1 [Example 28, N-[(4-hydroxy-2-oxo-8-(4-methoxyphenyl)-2H-3-chromenyl)carbonyl]glycine]
27 | 150 nM | O=C(O)CNC(=O)c1c(O)c2cccc(-c3ccc(F)c(F)c3)c2oc1=O [Example 25, N-[(4-hydroxy-2-oxo-8-(3,4-difluorophenyl)-2H-3-chromenyl)carbonyl]glycine]
28 | 150 nM | COc1cccc(-c2cccc3c(O)c(C(=O)NCC(=O)O)c(=O)oc23)c1 [Example 27, N-[(4-hydroxy-2-oxo-8-(3-methoxyphenyl)-2H-3-chromenyl)carbonyl]glycine]
29 | 150 nM | O=C(O)CNC(=O)c1c(O)c2ccc(-c3cccc(Cl)c3)cc2oc1=O [Example 3, N-[(4-hydroxy-2-oxo-7-(3-chloro-phenyl)-2H-3-chromenyl)carbonyl]glycine]
30 | 150 nM | O=C(O)CNC(=O)c1c(O)c2cccc(-c3ccc(Cl)cc3)c2oc1=O [Example 19, N-[(4-hydroxy-2-oxo-8-(4-chlorophenyl)-2H-3-chromenyl)carbonyl]glycine]
31 | 90 nM | O=C(O)CNC(=O)c1c(O)c2cccc(-c3ccc(C(F)(F)F)cc3)c2oc1=O [Example 21, N-[(4-hydroxy-2-oxo-8-(4-trifluoromethylphenyl)-2H-3-chromenyl)carbonyl]glycine]
32 | 80 nM | Cc1ccc(-c2cccc3c(O)c(C(=O)NCC(=O)O)c(=O)oc23)cc1 [Example 30, N-[(4-hydroxy-2-oxo-8-(4-methylphenyl)-2H-3-chromenyl)carbonyl]glycine]
33 | 100 nM | O=C(O)CNC(=O)c1c(O)c2cccc(-c3cccc(OC(F)(F)F)c3)c2oc1=O [Example 22, N-[(4-hydroxy-2-oxo-8-(3-trifluoromethoxyphenyl)-2H-3-chromenyl)carbonyl]glycine]
34 | 350 nM | O=C(O)CNC(=O)c1c(O)c2cccc(-c3ccccc3)c2oc1=O [Example 16, N-[(4-hydroxy-2-oxo-8-phenyl-2H-3-chromenyl)carbonyl]glycine]
35 | 150 nM | Cc1cccc(-c2cccc3c(O)c(C(=O)NCC(=O)O)c(=O)oc23)c1 [Example 29, N-[(4-hydroxy-2-oxo-8-(3-methylphenyl)-2H-3-chromenyl)carbonyl]glycine]
